Columns and labels:
[1] = molecular target: T1, Replicase polyprotein 1ab (Severe acute respiratory syndrome coronavirus 2, UniProt P0DTD1)
[2] = Cytotoxicity against African green monkey Vero E6 cells incubated for 24 hrs by CCK8 assay; format: toxicity, cell-based, Vero C1008; conditions: chlorocebus sabaeus
[3] = molecular target: Replicase polyprotein 1ab (Severe acute respiratory syndrome coronavirus 2) (UniProt P0DTD1); conditions: dose 31.25-1000 nM, time 100.0 sec
[4] = molecular target: Replicase polyprotein 1ab (Severe acute respiratory syndrome coronavirus 2) (UniProt P0DTD1); conditions: dose 31.25-1000 nM, time 100.0 sec; remark: listed apart in the source
[5] = Tmax in ICR mouse at 20 mg/kg, po; format: ADME, organism-based; conditions: in vivo
[6] = Half-life in ICR mouse at 20 mg/kg, po; format: ADME, organism-based; conditions: in vivo
[7] = Cmax in ICR mouse at 20 mg/kg, po; format: ADME, organism-based; conditions: in vivo
[8] = AUC (0 to infinity) in ICR mouse at 20 mg/kg, po; format: ADME, organism-based; conditions: in vivo
[9] = AUClast in ICR mouse at 20 mg/kg, po; format: ADME, organism-based; conditions: in vivo
[10] = Observed MRT (0 to infinity) in ICR mouse at 20 mg/kg, po; format: ADME, organism-based; conditions: in vivo
[11] = molecular target: T1, Replicase polyprotein 1ab; remark: listed apart in the source
[12] = molecular target: T1, Replicase polyprotein 1ab; remark: listed apart in the source

| SMILES | IC50 [1] | other results |
| --- | --- | --- |
| CN(CC1COCCO1)C(=O)C1CN(c2ccc(Cl)c(Cl)c2)CCN1C(=O)c1cc(=O)[nH]c2ccccc12 (configuration not stated) | 2610 nM | – |
| CC1(C)C2CN(C(=O)C3CN(c4ccc(Cl)c(Cl)c4)CCN3C(=O)c3cc(=O)[nH]c4ccccc34)CC21 (configuration not stated) | 4510 nM | – |
| O=C(N[C@@H]1CCC[C@@H]1Nc1ccc(Cl)c(Cl)c1)c1cc(=O)[nH]c2ccccc12 | > 10000 nM | – |
| O=C(NCC1CCCO1)C1CN(c2ccc(Cl)c(Cl)c2)CCN1C(=O)c1cc(=O)[nH]c2ccccc12 (configuration not stated) | 350 nM | – |
| O=C(N[C@H]1CCCC[C@H]1Nc1c(C(=O)N2CCOCC2)cc(C2CC2)cc1[N+](=O)[O-])c1cc(=O)[nH]c2c(F)cccc12 | 11.5 nM | – |
| CNC(=O)c1cc(Br)cc([N+](=O)[O-])c1N[C@@H]1CCCC[C@@H]1NC(=O)c1cc(=O)[nH]c2ccc(F)cc12 | 58.2 nM | CC50 at 24 h [2]: > 200000 nM |
| O=C(NCC1CCC1)C1CN(c2ccc(Cl)c(Cl)c2)CCN1C(=O)c1cc(=O)[nH]c2ccccc12 (configuration not stated) | 300 nM | – |
| COc1ccc2[nH]c(=O)cc(C(=O)N[C@H]3CCC[C@H]3Nc3c(C(=O)N4CCOCC4)cc(C4CC4)cc3[N+](=O)[O-])c2c1 | 20.3 nM | – |
| O=C(c1cc(=O)[nH]c2ccccc12)N1CCN(c2ccc(Cl)c(Cl)c2)CC1Cc1ccccc1 (configuration not stated) | > 20000 nM | – |
| CNC(=O)c1cc(C2CC2)cc([N+](=O)[O-])c1N[C@@H]1CCCC[C@@H]1NC(=O)c1cc(=O)[nH]c2ccccc12 | 20.7 nM | CC50 at 24 h [2]: > 200000 nM |
| O=C(N[C@H]1CCC[C@H]1Nc1c(C(=O)N2CCOCC2)cc(Br)cc1[N+](=O)[O-])c1cc(=O)[nH]c2ccccc12 | 20.9 nM | – |
| O=C(NCCC(F)(F)F)[C@H]1CN(c2ccc(Cl)c(Cl)c2)CCN1C(=O)c1cc(=O)[nH]c2ccccc12 | 540 nM | – |
| O=C(NCCN1CCOCC1)C1CN(c2ccc(Cl)c(Cl)c2)CCN1C(=O)c1cc(=O)[nH]c2ccccc12 (configuration not stated) | 840 nM | – |
| O=C(N[C@H]1CCCC[C@H]1Nc1c(C(=O)N2CCOCC2)cc(Br)cc1[N+](=O)[O-])c1cc(=O)[nH]c2c(F)cccc12 | 26.9 nM | CC50 at 24 h [2]: > 200000 nM; K [3]: 5.4 10^5/M/s; K [4]: 0.01 s⁻¹; Tmax [5]: 15 min; half-life [6]: 48 min; Cmax [7]: 33.9 ng/mL; AUC(0-inf) [8]: 21.6 ng·h/mL; AUC(0-t) [9]: 21.2 ng·h/mL; MRT inf [10]: 39 min; Kd [11]: 19 nM |
| CNC(=O)c1cccc([N+](=O)[O-])c1N[C@@H]1CCCC[C@@H]1NC(=O)c1cc(=O)[nH]c2ccccc12 | 1240 nM | – |
| O=C(NCCCN1CCOCC1)C1CN(c2ccc(Cl)c(Cl)c2)CCN1C(=O)c1cc(=O)[nH]c2ccccc12 (configuration not stated) | 1340 nM | – |
| CNC(=O)c1cc(Br)cc([N+](=O)[O-])c1N[C@@H]1CCCC[C@@H]1NC(=O)c1cc(=O)[nH]c2cc(F)ccc12 | 105 nM | – |
| O=C(N[C@H]1CCCC[C@H]1Nc1c(C(=O)N2CCOCC2)cc(Br)cc1[N+](=O)[O-])c1cc(=O)[nH]c2cc(F)ccc12 | 38.7 nM | – |
| O=C(N[C@H]1CCCC[C@H]1Nc1c(C(=O)N2CCOCC2)cc(C2CC2)cc1[N+](=O)[O-])c1cc(=O)[nH]c2ccccc12 | 9.6 nM | CC50 at 24 h [2]: > 200000 nM |

| SMILES | IC50 [1] | other results |
| --- | --- | --- |
| O=C(N[C@H]1CCC[C@H]1Nc1c(C(=O)N2CCOCC2)cc(C2CC2)cc1[N+](=O)[O-])c1cc(=O)[nH]c2c(F)cccc12 | 21.3 nM | – |
| CNC(=O)c1cc(Br)cc([N+](=O)[O-])c1NC1CCN(C(=O)c2cc(=O)[nH]c3ccccc23)C1 (configuration not stated) | 195 nM | – |
| O=C(NCCC1CCCC1)C1CN(c2ccc(Cl)c(Cl)c2)CCN1C(=O)c1cc(=O)[nH]c2ccccc12 (configuration not stated) | 920 nM | – |
| O=C(N[C@H]1CCCC[C@H]1Nc1c(C(=O)N2CCOCC2)cc(Br)cc1[N+](=O)[O-])c1cc(=O)[nH]c2ccccc12 | 32.7 nM | CC50 at 24 h [2]: > 200000 nM |
| O=C1CCN(C(=O)C2CN(c3ccc(Cl)c(Cl)c3)CCN2C(=O)c2cc(=O)[nH]c3ccccc23)CC1 (configuration not stated) | 3310 nM | – |
| O=C(NCCC1CC1)C1CN(c2ccc(Cl)c(Cl)c2)CCN1C(=O)c1cc(=O)[nH]c2ccccc12 (configuration not stated) | 520 nM | – |
| O=C(NCCC1CCOCC1)C1CN(c2ccc(Cl)c(Cl)c2)CCN1C(=O)c1cc(=O)[nH]c2ccccc12 (configuration not stated) | 1140 nM | – |
| COc1ccc2[nH]c(=O)cc(C(=O)N[C@H]3CCCC[C@H]3Nc3c(C(=O)N4CCN(C)CC4)cc(Br)cc3[N+](=O)[O-])c2c1 | 18 nM | – |
| O=C(C1CN(c2ccc(Cl)c(Cl)c2)CCN1C(=O)c1cc(=O)[nH]c2ccccc12)N1CCC2(CC1)COC2 (configuration not stated) | 2220 nM | – |
| CNC(=O)c1cc(Br)cc([N+](=O)[O-])c1N[C@@H]1CCCC[C@@H]1NC(=O)c1cc(=O)[nH]c2ccccc12 | 40.8 nM | CC50 at 24 h [2]: > 200000 nM; K [3]: 2.1 10^5/M/s; K [4]: 0.019 s⁻¹; Tmax [5]: 15 min; half-life [6]: 231 min; Cmax [7]: 11.3 ng/mL; AUC(0-inf) [8]: 29.9 ng·h/mL; AUC(0-t) [9]: 23.6 ng·h/mL; MRT inf [10]: 305 min; Kd [11]: 8.9 nM |
| O=C(c1cc(=O)[nH]c2ccccc12)N1CCC(Nc2ccc(Cl)c(Cl)c2)C1 (configuration not stated) | 8330 nM | – |
| O=C(C1CN(c2ccc(Cl)c(Cl)c2)CCN1C(=O)c1cc(=O)[nH]c2ccccc12)N1CC2(COC2)C1 (configuration not stated) | 2110 nM | – |
| O=C(NCCC(F)(F)F)C1CN(c2ccc(Cl)c(Cl)c2)CCN1C(=O)c1cc(=O)[nH]c2ccccc12 (configuration not stated) | 200 nM | CC50 at 24 h [2]: 50300 nM |
| O=C(NCC1CCCC1)C1CN(c2ccc(Cl)c(Cl)c2)CCN1C(=O)c1cc(=O)[nH]c2ccccc12 (configuration not stated) | 280 nM | – |
| CN1CCN(C(=O)c2cc(Br)cc([N+](=O)[O-])c2N[C@@H]2CCC[C@@H]2NC(=O)c2cc(=O)[nH]c3ccccc23)CC1 | 22.9 nM | – |
| CNC(=O)c1cc(Br)cc([N+](=O)[O-])c1N[C@H]1CCC[C@H]1NC(=O)c1cc(=O)[nH]c2ccccc12 | 51.3 nM | – |
| O=C(C1CN(c2ccc(Cl)c(Cl)c2)CCN1C(=O)c1cc(=O)[nH]c2ccccc12)N1CCOCC1 (configuration not stated) | 9470 nM | – |
| O=C(N[C@H]1CCC[C@H]1Nc1c(C(=O)N2CCOCC2)cc(Br)cc1[N+](=O)[O-])c1cc(=O)[nH]c2c(F)cccc12 | 36.5 nM | – |
| CN1CCN(C(=O)C2CN(c3ccc(Cl)c(Cl)c3)CCN2C(=O)c2cc(=O)[nH]c3ccccc23)CC1 (configuration not stated) | 1320 nM | – |

| SMILES | IC50 [1] | other results |
| --- | --- | --- |
| O=C(NCC1CC1)C1CN(c2ccc(Cl)c(Cl)c2)CCN1C(=O)c1cc(=O)[nH]c2ccccc12 (configuration not stated) | 340 nM | – |
| COc1ccc2[nH]c(=O)cc(C(=O)N[C@H]3CCCC[C@H]3Nc3c(C(=O)N4CCOCC4)cc(C4CC4)cc3[N+](=O)[O-])c2c1 | 10.6 nM | CC50 at 24 h [2]: > 200000 nM |
| O=C(NCC1CCO1)C1CN(c2ccc(Cl)c(Cl)c2)CCN1C(=O)c1cc(=O)[nH]c2ccccc12 (configuration not stated) | 310 nM | – |
| O=C(c1cc(=O)[nH]c2ccccc12)N1CCN(c2ccc(Cl)c(Cl)c2)C[C@@H]1CC1CCCCC1 | > 20000 nM | – |
| O=C(NCCCC(F)(F)F)C1CN(c2ccc(Cl)c(Cl)c2)CCN1C(=O)c1cc(=O)[nH]c2ccccc12 (configuration not stated) | 200 nM | CC50 at 24 h [2]: 69400 nM |
| CNC(=O)c1cc(Br)cc([N+](=O)[O-])c1N[C@@H]1CCCC[C@@H]1NC(=O)c1cc(=O)[nH]c2c(F)cccc12 | 57 nM | CC50 at 24 h [2]: > 200000 nM; K [3]: 7.5 10^5/M/s; K [4]: 0.018 s⁻¹; Tmax [5]: 3 min; half-life [6]: 139 min; Cmax [7]: 63.6 ng/mL; AUC(0-inf) [8]: 58.2 ng·h/mL; AUC(0-t) [9]: 56.1 ng·h/mL; MRT inf [10]: 93.6 min; Kd [11]: 23.6 nM |
| O=C(c1cc(=O)[nH]c2ccccc12)N1CCN(c2ccc(Cl)c(Cl)c2)CC1CN1CCOCC1 (configuration not stated) | 150 nM | CC50 at 24 h [2]: 381000 nM; K [4]: 0.028 s⁻¹; IC50 [12]: 150 nM; Kd [11]: 117 nM |
| CN1CCN(C(=O)c2cc(C3CC3)cc([N+](=O)[O-])c2N[C@@H]2CCC[C@@H]2NC(=O)c2cc(=O)[nH]c3c(F)cccc23)CC1 | 28.5 nM | – |
| O=C1CC2CN(C(=O)C3CN(c4ccc(Cl)c(Cl)c4)CCN3C(=O)c3cc(=O)[nH]c4ccccc34)CC2C1 (configuration not stated) | 1850 nM | – |
| O=C(N[C@H]1CCC[C@H]1Nc1c(C(=O)N2CCOCC2)cc(C2CC2)cc1[N+](=O)[O-])c1cc(=O)[nH]c2ccccc12 | 23.5 nM | – |
| COc1ccc2[nH]c(=O)cc(C(=O)N[C@H]3CCC[C@H]3Nc3c(C(=O)N4CCN(C)CC4)cc(C4CC4)cc3[N+](=O)[O-])c2c1 | 24 nM | – |
| CCCCNC(=O)C1CN(c2ccc(Cl)c(Cl)c2)CCN1C(=O)c1cc(=O)[nH]c2ccccc12 (configuration not stated) | 580 nM | – |
| O=C(NCCC(F)(F)F)[C@@H]1CN(c2ccc(Cl)c(Cl)c2)CCN1C(=O)c1cc(=O)[nH]c2ccccc12 | 150 nM | – |
| O=C(NCC1CCCCC1)C1CN(c2ccc(Cl)c(Cl)c2)CCN1C(=O)c1cc(=O)[nH]c2ccccc12 (configuration not stated) | 440 nM | – |
| O=C1CC2(CCN(C(=O)C3CN(c4ccc(Cl)c(Cl)c4)CCN3C(=O)c3cc(=O)[nH]c4ccccc34)CC2)C1 (configuration not stated) | 1290 nM | – |
| COc1ccc2[nH]c(=O)cc(C(=O)N[C@H]3CCCC[C@H]3Nc3c(C(=O)N4CCOCC4)cc(Br)cc3[N+](=O)[O-])c2c1 | 29.2 nM | – |
| CN1CCN(C(=O)c2cc(C3CC3)cc([N+](=O)[O-])c2N[C@@H]2CCC[C@@H]2NC(=O)c2cc(=O)[nH]c3ccccc23)CC1 | 24.9 nM | – |
| CN1CCN(C(=O)c2cc(Br)cc([N+](=O)[O-])c2N[C@@H]2CCC[C@@H]2NC(=O)c2cc(=O)[nH]c3c(F)cccc23)CC1 | 28.6 nM | – |

— ChEMBL document CHEMBL5523769, “Discovery of Novel Nonpeptidic and Noncovalent Small Molecule 3CLpro Inhibitors as anti-SARS-CoV-2 Drug Candidate” (J Med Chem, 2024)
